From ChEMBL document CHEMBL1201862, “PubChem BioAssay data set” (2004)
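Compound exposure: 48 hours, 5 concentrations, 96-well plates. GI50 marks 50% less growth.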 Active and inactive are the calls of the source. Rule as the data show it: active = GI50 up to about 1.1 µM and inactive = higher.

Key:
Assay in all cases: growth of human tumour cells (NCI), 48 h
HCC 2998 = tested on: HCC 2998
HCT-116 = tested on: HCT-116
HL-60 = tested on: HL-60
HOP-62 = tested on: HOP-62
HOP-92 = tested on: HOP-92
HT-29 = tested on: HT-29
K562 = tested on: K562
M14 = tested on: M14
MCF7 = tested on: MCF7
MDA-N = tested on: MDA-N
NCI-H23 = tested on: NCI-H23
NCI-H460 = tested on: NCI-H460
OVCAR-4 = tested on: OVCAR-4
OVCAR-8 = tested on: OVCAR-8
PC-3 = tested on: PC-3
RPMI-8226 = tested on: RPMI-8226
SF-295 = tested on: SF-295
SNB-75 = tested on: SNB-75
U-251 = tested on: U-251
SK-MEL-5 = tested on: SK-MEL-5

SMILES	GI50 (HCC 2998)	GI50 (HCT-116)	GI50 (HL-60)	GI50 (HOP-62)	GI50 (HOP-92)	GI50 (HT-29)	GI50 (K562)	GI50 (M14)	GI50 (MCF7)	GI50 (MDA-N)	GI50 (NCI-H23)	GI50 (NCI-H460)	GI50 (OVCAR-4)	GI50 (OVCAR-8)	GI50 (PC-3)	GI50 (RPMI-8226)	GI50 (SF-295)	GI50 (SNB-75)	GI50 (U-251)	GI50 (SK-MEL-5)
CC1=NCCN=C(C)C1/N=N/c1ccc2[nH]c(C)nc2c1	14 µM (inactive)	13.2 µM (inactive)	3.54 µM (inactive)	22.1 µM (inactive)	4.7 µM (inactive)	12.6 µM (inactive)	4.83 µM (inactive)	3.57 µM (inactive)	5.75 µM (inactive)	10.2 µM (inactive)	13.8 µM (inactive)	18.2 µM (inactive)	12.4 µM (inactive)	12.2 µM (inactive)	6.03 µM (inactive)	3.11 µM (inactive)	13.2 µM (inactive)	13.2 µM (inactive)	17.5 µM (inactive)	–
N#CCCN(CCC#N)c1ccc(/C=C2\N=C(c3ccccc3)N(c3ccccc3)C2=O)cc1	–	5.93 µM (inactive)	3.07 µM (inactive)	> 100 µM (inactive)	5.19 µM (inactive)	8.97 µM (inactive)	18.5 µM (inactive)	> 100 µM (inactive)	> 100 µM (inactive)	> 100 µM (inactive)	–	2.1 µM (inactive)	> 100 µM (inactive)	> 100 µM (inactive)	17 µM (inactive)	8.36 µM (inactive)	> 100 µM (inactive)	–	> 100 µM (inactive)	4.38 µM (inactive)
CNc1ncnc(Sc2nc(N)nc3[nH]cnc23)c1[N+](=O)[O-]	–	0.39 µM (active)	1.91 µM (inactive)	0.675 µM (active)	0.52 µM (active)	1.09 µM (active)	0.33 µM (active)	0.448 µM (active)	0.735 µM (active)	0.552 µM (active)	1.21 µM (inactive)	0.552 µM (active)	1.46 µM (inactive)	0.622 µM (active)	4.23 µM (inactive)	0.15 µM (active)	0.971 µM (active)	0.406 µM (active)	4.42 µM (inactive)	2.9 µM (inactive)
OC(Cc1ccc2ccccc2n1)(C(F)(F)F)C(F)(F)F	> 10 µM (inactive)	> 10 µM (inactive)	–	> 10 µM (inactive)	> 10 µM (inactive)	> 10 µM (inactive)	> 10 µM (inactive)	> 10 µM (inactive)	> 10 µM (inactive)	> 10 µM (inactive)	> 10 µM (inactive)	> 10 µM (inactive)	> 10 µM (inactive)	> 10 µM (inactive)	> 10 µM (inactive)	> 10 µM (inactive)	> 10 µM (inactive)	> 10 µM (inactive)	> 10 µM (inactive)	> 10 µM (inactive)
COC(=O)C[C@](O)(CCCC(C)(C)O)C(=O)O[C@@H]1C(OC)=C[C@]23CCCN2CCc2cc4c(cc2[C@H]13)OCO4 [OMACETAXINE MEPESUCCINATE]	0.0583 µM (active)	–	0.0325 µM (active)	0.0597 µM (active)	0.0869 µM (active)	0.115 µM (active)	0.0397 µM (active)	1.21 µM (inactive)	0.015 µM (active)	2.42 µM (inactive)	0.0528 µM (active)	–	0.342 µM (active)	0.146 µM (active)	3.01 µM (inactive)	0.0388 µM (active)	0.152 µM (active)	0.102 µM (active)	0.0571 µM (active)	0.117 µM (active)
N#CC(CC(=O)O)=C(c1ccccc1)c1ccccc1	> 100 µM (inactive)	> 100 µM (inactive)	–	> 100 µM (inactive)	> 100 µM (inactive)	> 100 µM (inactive)	> 100 µM (inactive)	> 100 µM (inactive)	> 100 µM (inactive)	> 100 µM (inactive)	> 100 µM (inactive)	> 100 µM (inactive)	> 100 µM (inactive)	> 100 µM (inactive)	> 100 µM (inactive)	> 100 µM (inactive)	> 100 µM (inactive)	> 100 µM (inactive)	> 100 µM (inactive)	> 100 µM (inactive)
COC(=O)Nc1nc2cc(NC(=O)c3cccs3)ccc2[nH]1	–	34.4 µM (inactive)	61.7 µM (inactive)	84.9 µM (inactive)	1.53 µM (inactive)	33 µM (inactive)	24.3 µM (inactive)	33.7 µM (inactive)	32.1 µM (inactive)	10.4 µM (inactive)	35.4 µM (inactive)	40 µM (inactive)	74 µM (inactive)	68.7 µM (inactive)	30.2 µM (inactive)	18.8 µM (inactive)	29.6 µM (inactive)	15.7 µM (inactive)	34.2 µM (inactive)	15.6 µM (inactive)
C/C(=N\NS(=O)(=O)c1ccc(C)cc1)C(CN(C)C)C(c1ccccc1)c1c(O)c2ccccc2oc1=O (stereo not drawn)	–	> 100 µM (inactive)	> 100 µM (inactive)	89.9 µM (inactive)	60 µM (inactive)	> 100 µM (inactive)	> 84.5 µM (inactive)	> 100 µM (inactive)	> 100 µM (inactive)	> 100 µM (inactive)	> 100 µM (inactive)	> 100 µM (inactive)	> 100 µM (inactive)	> 100 µM (inactive)	> 100 µM (inactive)	> 95.9 µM (inactive)	> 100 µM (inactive)	> 51.9 µM (inactive)	> 100 µM (inactive)	> 100 µM (inactive)
O=[N+]([O-])C(C=C(n1nnc2ccccc21)n1nnc2ccccc21)=C(n1nnc2ccccc21)n1nnc2ccccc21	> 100 µM (inactive)	46.2 µM (inactive)	41 µM (inactive)	> 100 µM (inactive)	84.1 µM (inactive)	> 100 µM (inactive)	42.3 µM (inactive)	> 100 µM (inactive)	> 100 µM (inactive)	> 100 µM (inactive)	> 100 µM (inactive)	> 100 µM (inactive)	–	> 100 µM (inactive)	> 100 µM (inactive)	44.6 µM (inactive)	> 100 µM (inactive)	–	> 100 µM (inactive)	–
CO/N=C(\C)c1cccc(Nc2c3ccccc3nc3occc23)c1	6.93 µM (inactive)	8.34 µM (inactive)	3.53 µM (inactive)	6.37 µM (inactive)	14.3 µM (inactive)	4.47 µM (inactive)	4.11 µM (inactive)	8.97 µM (inactive)	6.47 µM (inactive)	4.35 µM (inactive)	7.45 µM (inactive)	5.81 µM (inactive)	4.75 µM (inactive)	20 µM (inactive)	16.8 µM (inactive)	4.36 µM (inactive)	5.46 µM (inactive)	–	14.2 µM (inactive)	6.22 µM (inactive)
COC1CC(OC2C(C)OC(OC3C(C)OC(OC4C(O)CC(O[C@H]5CC[C@@]6(C)C(=CC[C@]7(O)[C@@H]6C[C@@H](OC(C)=O)[C@@]6(C)[C@]7(O)CC[C@@]6(O)C(C)=O)C5)OC4C)CC3OC)CC2OC)OC(C)C1O (stereo partly drawn)	> 12.5 µM (inactive)	> 12.5 µM (inactive)	> 12.5 µM (inactive)	> 12.5 µM (inactive)	> 12.5 µM (inactive)	> 12.5 µM (inactive)	> 12.5 µM (inactive)	> 12.5 µM (inactive)	> 12.5 µM (inactive)	> 12.5 µM (inactive)	> 12.5 µM (inactive)	–	> 12.5 µM (inactive)	> 12.5 µM (inactive)	> 12.5 µM (inactive)	> 12.5 µM (inactive)	> 12.5 µM (inactive)	> 12.5 µM (inactive)	> 12.5 µM (inactive)	> 12.5 µM (inactive)
CCC(=O)Nc1ccc(NCC(=O)Nc2ccc(OC)cc2)cc1	6.76 µM (inactive)	26.1 µM (inactive)	28.2 µM (inactive)	2.99 µM (inactive)	23.8 µM (inactive)	20.9 µM (inactive)	35.6 µM (inactive)	49.3 µM (inactive)	17.1 µM (inactive)	29.8 µM (inactive)	19.9 µM (inactive)	–	13.2 µM (inactive)	19.7 µM (inactive)	26.2 µM (inactive)	32.9 µM (inactive)	46.7 µM (inactive)	13.7 µM (inactive)	–	17.5 µM (inactive)
COc1ccccc1N1C(=O)CC(=O)N(C(=O)CCCCCCCCC(=O)N2C(=O)CC(=O)N(c3ccccc3OC)C2=S)C1=S	> 100 µM (inactive)	56.9 µM (inactive)	–	> 100 µM (inactive)	59.2 µM (inactive)	49.4 µM (inactive)	38.1 µM (inactive)	69.7 µM (inactive)	44.2 µM (inactive)	67.3 µM (inactive)	53.6 µM (inactive)	83.9 µM (inactive)	73.1 µM (inactive)	63.2 µM (inactive)	62.5 µM (inactive)	35.7 µM (inactive)	> 100 µM (inactive)	> 100 µM (inactive)	70 µM (inactive)	52 µM (inactive)
CC12C(=O)CC(CC1=O)C2(C)C	–	> 100 µM (inactive)	> 100 µM (inactive)	> 100 µM (inactive)	> 100 µM (inactive)	> 100 µM (inactive)	> 100 µM (inactive)	> 100 µM (inactive)	> 100 µM (inactive)	> 100 µM (inactive)	–	> 100 µM (inactive)	> 100 µM (inactive)	> 100 µM (inactive)	> 100 µM (inactive)	> 100 µM (inactive)	> 100 µM (inactive)	> 100 µM (inactive)	–	> 100 µM (inactive)
